Where two headings read alike, the source gives them in different places. *1 amine or outer side, *2 acyl side, *3 side chain or, on linkers, in order; H or OH if unused. Where a SMILES comes first, the peptide text is derived from it. Side-chain parts run from the residue outwards. [ ]: non-standard residue; d: D form. The star is where a group is joined. Decanoyl(10-(4-HOOC-PhO)) = O=C(O)c1ccc(OCCCCCCCCCC(=O)*)cc1; αMePhe(2-F) = C[C@](N)(Cc1ccccc1F)C(=O)O; γGlu = O=C(O)[C@H](CCC(=O)[*:2])N[*:1]; αMeY = C[C@](N)(Cc1ccc(O)cc1)C(=O)O; αMeL = CC(C)C[C@](C)(N)C(=O)O; Orn = NCCC[C@H](N)C(=O)O; AEEA = NCCOCCOCC(=O)O; Aib = CC(C)(N)C(=O)O
What was measured:
Assay type in all cases: cell-based
hGIPR = molecular target: T1, hGIPR (Homo sapiens, UniProt P48546); assay: Functional cAMP formation (HTRF) in HEK-293 clonal cells expressing hGIPR, 0.1% bovine casein, without or with 1.0% human serum albumin; details: for EC50: cAMP
T1 construct: expressed in transfected cells
T1 sequence (P48546 22-466): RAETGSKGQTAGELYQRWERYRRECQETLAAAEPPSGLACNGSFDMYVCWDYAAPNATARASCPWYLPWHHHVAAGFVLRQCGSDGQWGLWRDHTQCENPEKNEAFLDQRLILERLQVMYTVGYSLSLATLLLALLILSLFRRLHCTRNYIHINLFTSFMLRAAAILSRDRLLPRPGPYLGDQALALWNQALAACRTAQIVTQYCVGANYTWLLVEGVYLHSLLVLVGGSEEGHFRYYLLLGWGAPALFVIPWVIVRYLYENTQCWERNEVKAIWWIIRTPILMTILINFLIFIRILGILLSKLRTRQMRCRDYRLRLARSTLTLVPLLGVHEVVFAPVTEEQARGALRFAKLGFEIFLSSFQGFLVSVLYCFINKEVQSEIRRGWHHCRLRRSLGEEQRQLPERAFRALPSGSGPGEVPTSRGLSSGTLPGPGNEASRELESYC
Method in brief: (§1)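 Cells were stimulated with peptide for 30 min at 37° C, then lysed in buffer carrying cAMP-d2 and anti-cAMP Eu3+-cryptate for a competitive HTRF read after at least 60 min at room temperature. The 665/620 nm ratio was converted to nM cAMP against a standard curve.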

hGCGR = molecular target: T2, hGCGR (Homo sapiens, UniProt P47871); assay: Functional cAMP formation (HTRF) in HEK-293 clonal cells expressing hGCGR, 0.1% bovine casein, without or with 1.0% human serum albumin
T2 construct: expressed in transfected cells
Method in brief: as §1

hGLP-1R = hGLP-1R (Homo sapiens, UniProt P43220); assay: Functional cAMP formation (HTRF) in HEK-293 clonal cells expressing hGLP-1R, 0.1% bovine casein, without or with 1.0% human serum albumin; parameters: expressed in transfected cells; details: for Emax: percent of maximal response to GLP-1(7-36)NH2; for EC50: geometric mean
Method in brief: as §1

T2 sequence (P47871 26-477): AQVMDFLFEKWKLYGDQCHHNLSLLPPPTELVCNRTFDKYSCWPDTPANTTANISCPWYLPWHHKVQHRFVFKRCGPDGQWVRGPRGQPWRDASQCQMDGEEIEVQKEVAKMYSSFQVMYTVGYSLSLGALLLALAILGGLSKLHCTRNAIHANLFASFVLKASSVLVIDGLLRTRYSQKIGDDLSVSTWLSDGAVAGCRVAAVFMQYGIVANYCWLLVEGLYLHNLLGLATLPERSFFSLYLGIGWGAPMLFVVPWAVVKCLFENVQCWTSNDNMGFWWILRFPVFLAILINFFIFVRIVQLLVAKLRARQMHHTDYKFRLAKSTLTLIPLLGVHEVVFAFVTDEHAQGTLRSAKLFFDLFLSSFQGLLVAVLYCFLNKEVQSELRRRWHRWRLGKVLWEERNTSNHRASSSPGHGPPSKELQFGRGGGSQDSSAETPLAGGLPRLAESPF
hGLP-1R, sequence (P43220 24-463): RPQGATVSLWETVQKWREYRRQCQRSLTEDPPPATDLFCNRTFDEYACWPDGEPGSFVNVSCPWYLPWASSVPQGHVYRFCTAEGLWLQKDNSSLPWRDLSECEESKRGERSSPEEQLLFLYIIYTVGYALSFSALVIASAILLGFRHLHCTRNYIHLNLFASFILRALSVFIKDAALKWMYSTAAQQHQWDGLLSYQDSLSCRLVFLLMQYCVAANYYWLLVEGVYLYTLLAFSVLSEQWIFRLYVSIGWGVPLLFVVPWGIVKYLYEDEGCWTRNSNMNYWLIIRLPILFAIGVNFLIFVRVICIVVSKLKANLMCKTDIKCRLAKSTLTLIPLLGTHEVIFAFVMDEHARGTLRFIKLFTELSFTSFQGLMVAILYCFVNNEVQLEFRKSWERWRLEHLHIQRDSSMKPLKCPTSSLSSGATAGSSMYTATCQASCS

CC[C@H](C)[C@H](NC(=O)[C@H](CCCN)NC(=O)[C@H](CC(=O)O)NC(=O)[C@H](CC(C)C)NC(=O)[C@](C)(CC(C)C)NC(=O)[C@@H](NC(=O)C(C)(C)NC(=O)[C@@H](NC(=O)[C@H](CC(=O)O)NC(=O)[C@H](CO)NC(=O)[C@@H](NC(=O)[C@](C)(Cc1ccccc1F)NC(=O)[C@@H](NC(=O)CNC(=O)[C@H](CCC(=O)O)NC(=O)C(C)(C)NC(=O)[C@@H](N)Cc1ccc(O)cc1)[C@@H](C)O)[C@@H](C)O)C(C)C)[C@@H](C)CC)C(=O)N[C@@H](C)C(=O)N[C@@H](CCC(N)=O)C(=O)NC(C)(C)C(=O)N[C@@H](CCC(=O)O)C(=O)N[C@@H](Cc1ccccc1)C(=O)N[C@H](C(=O)N[C@@H](CCCCNC(=O)COCCOCCNC(=O)COCCOCCNC(=O)COCCOCCNC(=O)CC[C@H](NC(=O)CCCCCCCCCCCCC(=O)O)C(=O)O)C(=O)N[C@@](C)(Cc1ccc(O)cc1)C(=O)N[C@@H](CC(C)C)C(=O)N[C@H](C(=O)N[C@@H](CCCCNC(=O)COCCOCCNC(=O)COCCOCCNC(=O)COCCOCCNC(=O)CC[C@H](NC(=O)CCCCCCCCCCCCC(=O)O)C(=O)O)C(=O)NCC(=O)NCC(=O)N1CCC[C@H]1C(=O)N[C@@H](CO)C(=O)N[C@@H](CO)C(=O)NCC(=O)N[C@@H](C)C(=O)N1CCC[C@H]1C(=O)N1CCC[C@H]1C(=O)N1CCC[C@H]1C(=O)N[C@@H](CO)C(N)=O)[C@@H](C)CC)[C@@H](C)CC [Example 344]
Emax (hGIPR; HEK293, cAMP, 37° C., 0.1% bovine casein and 1.0% human serum albumin, percent of maximal response to GIP(1-42)NH2, read-out: hGIPR Emax, % ± SEM): 87.3%
Emax (hGIPR; HEK293, cAMP, 37° C., 0.1% bovine casein, percent of maximal response to GIP(1-42)NH2, arithmetic mean, read-out: hGIPR Emax, % ± SEM): 97.9%
EC50 (hGIPR; 37° C., 0.1% bovine casein (no human serum albumin), geometric mean, read-out: hGIPR EC50, nM (SEM, n)): 0.0174 nM
EC50 (hGIPR; 37° C., 0.1% bovine casein and 1.0% human serum albumin, geometric mean (SEM, n), read-out: hGIPR EC50, nM (SEM, n)): 6.78 nM
EC50 (hGCGR; cAMP, 37° C., 0.1% bovine casein (no human serum albumin), geometric mean, read-out: hGCGR EC50, nM (SEM, n)): > 9950 nM
EC50 (hGCGR; cAMP, 37° C., 0.1% bovine casein and 1.0% human serum albumin, geometric mean (SEM, n), read-out: hGCGR EC50, nM (SEM, n)): > 9950 nM
Emax (hGLP-1R; HEK293, cAMP, 37° C., 0.1% bovine casein and 1.0% human serum albumin, read-out: hGLP-1R Emax, % ± SEM): 96.5%
Emax (hGLP-1R; HEK293, cAMP, 37° C., 0.1% bovine casein, arithmetic mean, read-out: hGLP-1R Emax, % ± SEM): 100%
EC50 (hGLP-1R; cAMP, 37° C., 0.1% bovine casein (no human serum albumin), read-out: hGLP-1R EC50, nM (SEM, n)): 0.336 nM

CC[C@H](C)[C@H](NC(=O)[C@H](CCCN)NC(=O)[C@H](CC(=O)O)NC(=O)[C@H](CC(C)C)NC(=O)[C@](C)(CC(C)C)NC(=O)[C@@H](NC(=O)[C@H](CO)NC(=O)[C@H](Cc1ccncc1)NC(=O)[C@H](CC(=O)O)NC(=O)[C@H](CO)NC(=O)[C@@H](NC(=O)[C@](C)(Cc1ccccc1F)NC(=O)[C@@H](NC(=O)CNC(=O)[C@H](CCC(=O)O)NC(=O)C(C)(C)NC(=O)[C@@H](N)Cc1ccc(O)cc1)[C@@H](C)O)[C@@H](C)O)[C@@H](C)CC)C(=O)N[C@@H](C)C(=O)N[C@@H](CCC(N)=O)C(=O)NC(C)(C)C(=O)N[C@@H](CCC(=O)O)C(=O)N[C@@H](Cc1ccccc1)C(=O)N[C@H](C(=O)N[C@@H](CCCCNC(=O)[C@@H](N)CCCCNC(=O)[C@@H](N)CCCCNC(=O)CC[C@H](NC(=O)CCCCCCCCCCCCC(=O)O)C(=O)O)C(=O)N[C@@](C)(Cc1ccc(O)cc1)C(=O)N[C@@H](CC(C)C)C(=O)N[C@H](C(=O)N[C@@H](CCC(=O)O)C(=O)NCC(=O)NCC(=O)N[C@@H](CCCCNC(=O)[C@@H](N)CCCCNC(=O)[C@@H](N)CCCCNC(=O)CC[C@H](NC(=O)CCCCCCCCCCCCC(=O)O)C(=O)O)C(=O)N[C@@H](CO)C(=O)N[C@@H](CO)C(=O)NCC(=O)N[C@@H](C)C(=O)N1CCC[C@H]1C(=O)N1CCC[C@H]1C(=O)N1CCC[C@H]1C(=O)N[C@@H](CO)C(N)=O)[C@@H](C)CC)[C@@H](C)CC [Example 198]
Emax (hGIPR; HEK293, 0.1% bovine casein and 1.0% human serum albumin, 37° C., percent of maximal response to GIP(1-42)NH2, read-out: hGIPR Emax, % ± SEM): 83.1 ± 3.45%
Emax (hGIPR; HEK293, percent of maximal response to GIP(1-42)NH2, 37° C., 0.1% bovine casein, arithmetic mean, read-out: hGIPR Emax, % ± SEM): 94 ± 1.17%
EC50 (hGIPR; incubated at 37° C., 0.1% bovine casein (no human serum albumin), geometric mean, read-out: hGIPR EC50, nM (SEM, n)): 0.0269 nM
EC50 (hGCGR; 0.1% bovine casein and 1.0% human serum albumin, 37° C., geometric mean, read-out: hGCGR EC50, nM (SEM, n)): > 9950 nM
EC50 (hGCGR; cAMP, incubated at 37° C., 0.1% bovine casein (no human serum albumin), geometric mean, read-out: hGCGR EC50, nM (SEM, n)): > 9950 nM
EC50 (hGLP-1R; 0.1% bovine casein and 1.0% human serum albumin, 37° C., read-out: hGLP-1R EC50, nM (SEM, n)): 14.5 nM
EC50 (hGLP-1R; cAMP, incubated at 37° C., 0.1% bovine casein (no human serum albumin), read-out: hGLP-1R EC50, nM (SEM, n)): 0.362 nM

CC[C@H](C)[C@H](NC(=O)[C@H](CC(C)C)NC(=O)[C@](C)(Cc1ccc(O)cc1)NC(=O)[C@@H](CCC(=O)O)NC(=O)[C@@H](NC(=O)[C@H](Cc1ccccc1)NC(=O)[C@H](CCCN)NC(=O)C(C)(C)NC(=O)[C@H](CCC(N)=O)NC(=O)[C@H](C)NC(=O)[C@H](CCCCNC(=O)COCCOCCNC(=O)COCCOCCNC(=O)CC[C@H](NC(=O)CCCCCCCCCOc1ccc(C(=O)O)cc1)C(=O)O)NC(=O)[C@H](CCCN)NC(=O)[C@H](CC(=O)O)NC(=O)[C@H](CC(C)C)NC(=O)[C@](C)(CC(C)C)NC(=O)[C@@H](NC(=O)C(C)(C)NC(=O)[C@H](Cc1ccc(O)cc1)NC(=O)[C@H](CC(=O)O)NC(=O)[C@H](CO)NC(=O)[C@@H](NC(=O)[C@](C)(Cc1ccccc1F)NC(=O)[C@@H](NC(=O)CNC(=O)[C@H](CCC(=O)O)NC(=O)C(C)(C)NC(=O)[C@@H](N)Cc1ccc(O)cc1)[C@@H](C)O)[C@@H](C)O)[C@@H](C)CC)[C@@H](C)CC)C(=O)N[C@@H](CCCCNC(=O)COCCOCCNC(=O)COCCOCCNC(=O)CC[C@H](NC(=O)CCCCCCCCCOc1ccc(C(=O)O)cc1)C(=O)O)C(=O)NCC(=O)NCC(=O)N1CCC[C@H]1C(=O)N[C@@H](CO)C(=O)N[C@@H](CO)C(=O)NCC(=O)N[C@@H](C)C(=O)N1CCC[C@H]1C(=O)N1CCC[C@H]1C(=O)N1CCC[C@H]1C(=O)N[C@@H](CO)C(N)=O [Example 352] (H-Y[Aib]EGT[αMePhe(2-F)]TSDY[Aib]I[αMeL]LD[Orn]K([AEEA-AEEA-γGlu-Decanoyl(10-(4-HOOC-PhO))])AQ[Aib][Orn]FI[dE][αMeY]LIK([AEEA-AEEA-γGlu-Decanoyl(10-(4-HOOC-PhO))])GGPSSGAPPPS-NH2)
Emax (hGIPR; HEK293, read-out: hGIPR Emax, % ± SEM, cAMP, 37° C., 0.1% bovine casein and 1.0% human serum albumin, percent of maximal response to GIP(1-42)NH2): 71.3%
Emax (hGIPR; HEK293, read-out: hGIPR Emax, % ± SEM, cAMP, 37° C., 0.1% bovine casein, percent of maximal response to GIP(1-42)NH2, arithmetic mean): 98.3%
EC50 (hGIPR; hGIPR EC50, nM (SEM, n), 37° C., 0.1% bovine casein (no human serum albumin), geometric mean): 0.0106 nM
EC50 (hGCGR; hGCGR EC50, nM (SEM, n), cAMP, 37° C., 0.1% bovine casein (no human serum albumin), geometric mean): > 9950 nM
EC50 (hGCGR; hGCGR EC50, nM (SEM, n), cAMP, 37° C., 0.1% bovine casein and 1.0% human serum albumin, geometric mean (SEM, n)): > 9950 nM
Emax (hGLP-1R; HEK293, read-out: hGLP-1R Emax, % ± SEM, cAMP, 37° C., 0.1% bovine casein and 1.0% human serum albumin): 93.5%
EC50 (hGLP-1R; hGLP-1R EC50, nM (SEM, n), cAMP, 37° C., 0.1% bovine casein (no human serum albumin)): 0.262 nM

Reference: patent publication US20230265151A1, “GIP/GLP1 CO-AGONIST COMPOUNDS” (priority 2020, published 2023)
